Assays:
[1] = system: allo-reactive cytotoxic T cell (EL4 target cells); assay: suppression of induction of allo-reactive cytotoxic T cell in mouse allogenic mixed lymphocyte culture (MLC), 51Cr release; format: cell-based
Experimental: The target cells used were leukemia cells EL4 from the syngenic (H-2^b) C57BL/6 mouse as used for preparation of the stimulator cells. By incubating 10^6 EL4 cells in the presence of 370 KBq of Na2^51 CrO4 at 37° C. for 1 hour, ^51 Cr was incorporated into the cytoplasm. The cells were washed, adjusted to the concentration of 10^4 cells/ml and used as the target cells.
For the assay of the cytotoxic activity, 100 μl of the effector cell suspension and 100 μl of the target cell suspension were added to a 96-well flat-bottomed microculture plate, and cultured at 37° C. for 4 hours. The amount of ^51 Cr released into the supernatant was determined and the cytotoxic activity was calculated by the following formula. [formula]
The activity of the cytotoxic T cell is expressed by LU (lytic unit) per 10^6 effector cells.

[2] = system: IL-2 production in PHA-stimulated mouse spleen cells; assay: suppression of IL-2 production in PHA-stimulated mouse spleen cells; format: cell-based; settings: for inhibition at 0.001 µg/mL / inhibition at 0.01 µg/mL / inhibition at 0.1 µg/mL / inhibition at 1 µg/mL: Mus musculus, 24 h, read-out: Suppression
Experimental: (§1) The suppression of IL-2 and IL-3 production in the mitogen-stimulated mouse spleen cells was examined as follows:
(§2) The spleen was resected from 5- to 8-week-old male C3H/HeN mice, and a single cell suspension of spleen cells was prepared by using the RPMI1640 culture medium. After hemolytic treatment, the concentration of the suspension was adjusted to 10^7 cells/ml by using the RPMI1640 culture medium supplemented with 20% FCS, to which 10 μg/ml of phytohemagglutinin (PHA) was added as mitogen. […] After termination of culture, the supernatant was collected and used as the culture supernatant of PHA-stimulated mouse spleen cells.
The IL-2 activity in the culture supernatant of PHA-stimulated mouse spleen cells was assayed as follows:
IL-2 dependent mouse cell line CTLL-2 cells were suspended in the RPMI1640 culture medium supplemented with 30% FCS to the concentration of 2×10^5 cells/ml. One hundred μl of the cell suspension and 100 μl of the two-fold serial dilution of the culture supernatant of PHA-stimulated mouse spleen cells were added to a 96-well flat-bottomed microtest plate. […] The IL-2 activity is expressed in U/ml as the dilution at which the absorbancy measured by MTT method was 50% of the maximum.

[3] = system: IL-3 production in PHA-stimulated mouse spleen cells; assay: suppression of IL-3 production in PHA-stimulated mouse spleen cells; format: cell-based; settings: for inhibition at 0.001 µg/mL / inhibition at 0.01 µg/mL / inhibition at 0.1 µg/mL / inhibition at 1 µg/mL: Mus musculus, 24 h, read-out: Suppression
Experimental: as §1, §2
The IL-3 activity was assayed as follows:
IL-3-dependent mouse cell line FDC-P2 cells were suspended in the RPMI1640 culture medium supplemented with 10% FCS to the concentration of 2×10^5 cells/ml. One hundred μl of the cell suspension and 100 μl of the two-fold serial dilution of the culture supernatant of PHA-stimulated mouse spleen cells described above were added to a 96-well flat-bottomed microtest plate. […] The IL-3 activity is expressed in U/ml as the dilution at which the absorbancy measured by MTT method was 50% of the maximum.

[4] = system: IL-3 production in mouse allogenic MLC; assay: suppression of IL-3 production in mouse allogenic MLC; format: cell-based
Experimental: Mouse allogenic MLC was carried out as follows:
After termination of culture, the supernatant was collected and used as the supernatant of mouse allogenic MLC.

[5] = cytotoxicity to cultured tumor cell line U937; format: cell-based, human; settings: human, u937 cells; 0.1 μg/ml; read-out: Suppression
Experimental: (§3) Cytotoxicity to various human tumor cell lines was examined as follows:
(§4) Cells of human cell lines, K562, MOLT4, U937 and HL60 were respectively suspended to the concentration of 4×10^5 cells/ml in the RPMI1640 culture medium supplemented with 20% FCS. Fifty μl of each suspension was added to each well of a 96-well microtest plate to which 50 μl of the test solution had been added. After culturing the suspension at 37° C. in an atmosphere of 5% carbon dioxide for 72 hours, the absorbancy at 570 nm was measured in the same way as with the colorimetry using MTT in Experiment Example 1, and the percent suppression was calculated by the following formula, which was used as an index of cytotoxicity.

[6] = system: U937; assay: cytotoxicity to cultured tumor cell line U937; format: cell-based, human
Experimental: as §3, §4

[7] = cytotoxicity to cultured tumor cell line K562; settings: human, k562 cells, Suppression
Experimental: as §3, §4

[8] = system: K562; assay: cytotoxicity to cultured tumor cell line K562
Experimental: as §3, §4

[9] = cytotoxicity to cultured tumor cell line HL60; settings: human, hl60 cells, Suppression
Experimental: as §3, §4

[10] = system: HL60; assay: cytotoxicity to cultured tumor cell line HL60
Experimental: as §3, §4

CCCCCCCCCCCCC/C=C/C[C@@H](O)[C@H](O)[C@@](N)(CO)C(=O)O [Example 5]
Cytotoxic activity ([1]; 0.00001 μg/ml, C3H/HeN responder): 9.8 LU/10^6 | Cytotoxic activity ([1]; 0.0001 μg/ml, BALB/c responder): 9.2 LU/10^6 | Cytotoxic activity ([1]; 0.0001 μg/ml, C3H/HeN responder): 8.0 LU/10^6 | Cytotoxic activity ([1]; 0.001 μg/ml, BALB/c responder): 3.7 LU/10^6 | Cytotoxic activity ([1]; 0.001 μg/ml, C3H/HeN responder): 6.8 LU/10^6 | Cytotoxic activity ([1]; 0.01 μg/ml, BALB/c responder): 1.6 LU/10^6 | Cytotoxic activity ([1]; 0.01 μg/ml, C3H/HeN responder): < 0.5 LU/10^6 | Cytotoxic activity ([1]; 0.1 μg/ml, BALB/c responder): < 0.5 LU/10^6 | Cytotoxic activity ([1]; 0.1 μg/ml, C3H/HeN responder): < 0.5 LU/10^6 | Cytotoxic activity ([1]; 1 μg/ml, BALB/c responder): < 0.5 LU/10^6 | Cytotoxic activity ([1]; 1 μg/ml, C3H/HeN responder): < 0.5 LU/10^6 | inhibition at 10 pg/mL ([1]; Mus musculus, T-cell, 144 h, 0.00001 μg/ml, C3H/HeN responder): 35.4% | inhibition at 0.0001 µg/mL ([1]; Mus musculus, T-cell, 144 h, 0.0001 μg/ml, BALB/c responder): 34.1% | inhibition at 0.0001 µg/mL ([1]; Mus musculus, T-cell, 144 h, 0.0001 μg/ml, C3H/HeN responder): 47.5% | inhibition at 0.001 µg/mL ([1]; Mus musculus, T-cell, 144 h, 0.001 μg/ml, C3H/HeN responder): 54.2% | inhibition at 0.01 µg/mL ([1]; Mus musculus, T-cell, 144 h, 0.01 μg/ml, C3H/HeN responder): > 95% | inhibition at 0.1 µg/mL ([1]; Mus musculus, T-cell, 144 h, 0.1 μg/ml, C3H/HeN responder): > 95% | inhibition at 1 µg/mL ([1]; Mus musculus, T-cell, 144 h, 1 μg/ml, C3H/HeN responder): > 95% | inhibition at 0.001 µg/mL ([1]; Mus musculus, T-cell, 144 h, 0.001 μg/ml, BALB/c responder): 73.2% | inhibition at 0.01 µg/mL ([1]; Mus musculus, T-cell, 144 h, 0.01 μg/ml, BALB/c responder): 88.4% | inhibition at 0.1 µg/mL ([1]; Mus musculus, T-cell, 144 h, 0.1 μg/ml, BALB/c responder): > 95% | inhibition at 1 µg/mL ([1]; Mus musculus, T-cell, 144 h, 1 μg/ml, BALB/c responder): > 95% | induction of the allo-reactive cytotoxic T cell (in words), BALB/c responder ([1]; Table 3A): markedly inhibited | induction of the allo-reactive cytotoxic T cell (in words), C3H/HeN responder ([1]; Table 3B): suppressed | IL-2 activity ([2]; 0.001 μg/ml): 8.6 U/ml | IL-2 activity ([2]; 0.01 μg/ml): 4.6 U/ml | IL-2 activity ([2]; 0.1 μg/ml): 4.3 U/ml | IL-2 activity ([2]; 1 μg/ml): 2.7 U/ml | inhibition at 0.001 µg/mL ([2]; 0.001 μg/ml): 36.3% | inhibition at 0.01 µg/mL ([2]; 0.01 μg/ml): 65.9% | inhibition at 0.1 µg/mL ([2]; 0.1 μg/ml): 68.1% | inhibition at 1 µg/mL ([2]; 1 μg/ml): 80% | IL-3 activity ([3]; 0.001 μg/ml): 22.0 U/ml | IL-3 activity ([3]; 0.01 μg/ml): 13.2 U/ml | IL-3 activity ([3]; 0.1 μg/ml): 12.0 U/ml | IL-3 activity ([3]; 1 μg/ml): 9.5 U/ml | inhibition at 0.001 µg/mL ([3]; 0.001 μg/ml): 10.2% | inhibition at 0.01 µg/mL ([3]; 0.01 μg/ml): 10.2% | inhibition at 0.1 µg/mL ([3]; 0.1 μg/ml): 51% | inhibition at 1 µg/mL ([3]; 1 μg/ml): 62.2% | IL-3 activity ([4]; 0.0001 μg/ml): 32.7 U/ml | IL-3 activity ([4]; 0.001 μg/ml): 19.2 U/ml | IL-3 activity ([4]; 0.01 μg/ml): 11.5 U/ml | IL-3 activity ([4]; 0.1 μg/ml): 7.9 U/ml | IL-3 activity ([4]; 1 μg/ml): 7.9 U/ml | inhibition at 0.0001 µg/mL ([4]; Mus musculus, 48 h, 0.0001 μg/ml): 42.1% | inhibition at 0.001 µg/mL ([4]; Mus musculus, 48 h, 0.001 μg/ml): 76.5% | inhibition at 0.01 µg/mL ([4]; Mus musculus, 48 h, 0.01 μg/ml): 96.2% | inhibition at 0.1 µg/mL ([4]; Mus musculus, 48 h, 0.1 μg/ml): 100% | inhibition at 1 µg/mL ([4]; Mus musculus, 48 h, 1 μg/ml): 100% | cytotoxicity at 72 h [5]: 0% | Absorbancy ([6]; 0.1 μg/ml): 0.695 ± 0.032 | Absorbancy ([6]; 1 μg/ml): 0.699 ± 0.044 | Absorbancy ([6]; 10 μg/ml): 0.684 ± 0.038 | cytotoxicity at 72 h ([7]; 0.1 μg/ml): 2.2% | cytotoxicity at 72 h ([7]; 1 μg/ml): 4% | cytotoxicity at 72 h ([7]; 10 μg/ml): 4.7% | Absorbancy ([8]; 0.1 μg/ml): 1.111 ± 0.037 | Absorbancy ([8]; 1 μg/ml): 1.090 ± 0.044 | Absorbancy ([8]; 10 μg/ml): 1.083 ± 0.033 | cytotoxicity at 72 h ([9]; 0.1 μg/ml): 0% | cytotoxicity at 72 h ([9]; 1 μg/ml): 5% | cytotoxicity at 72 h ([9]; 10 μg/ml): 19.4% | Absorbancy ([10]; 0.1 μg/ml): 1.505 ± 0.035 | Absorbancy ([10]; 1 μg/ml): 1.415 ± 0.010 | Absorbancy ([10]; 10 μg/ml): 1.201 ± 0.061

CCCCCCC1(CCCCCC/C=C/C[C@@H](O)[C@H](O)[C@@](N)(CO)C(=O)O)SCCS1 [Example 3]
IL-2 activity ([2]; 0.001 μg/ml): 14.9 U/ml | IL-2 activity ([2]; 0.01 μg/ml): 13.9 U/ml | IL-2 activity ([2]; 0.1 μg/ml): 12.6 U/ml | IL-2 activity ([2]; 1 μg/ml): 8.6 U/ml | inhibition at 0.001 µg/mL ([2]; 0.001 μg/ml): 0% | inhibition at 0.01 µg/mL ([2]; 0.01 μg/ml): 0% | inhibition at 0.1 µg/mL ([2]; 0.1 μg/ml): 0% | inhibition at 1 µg/mL ([2]; 1 μg/ml): 28.9% | IL-3 activity ([3]; 0.001 μg/ml): 42.2 U/ml | IL-3 activity ([3]; 0.01 μg/ml): 45.3 U/ml | IL-3 activity ([3]; 0.1 μg/ml): 42.2 U/ml | IL-3 activity ([3]; 1 μg/ml): 27.9 U/ml | inhibition at 0.001 µg/mL ([3]; 0.001 μg/ml): 0% | inhibition at 0.01 µg/mL ([3]; 0.01 μg/ml): 0% | inhibition at 0.1 µg/mL ([3]; 0.1 μg/ml): 0% | inhibition at 1 µg/mL ([3]; 1 μg/ml): 24.2%

Source: patent publication US5068247A, “2-aminopentanoic acid compounds and their use as immunosuppressants” (priority 1989, dated 1991)
